Source: PubChem BioAssay AID2060883 (Molecular Pharmacology Branch, DTP, NCI, 2025)
Where “and” joins values, the source holds several entries; their conditions need not be identical. Equal entries are not always repeated.

Tested on: 843782-103-R-J1-PDC complex spheroid viability
Assay: Anticancer human tumor 843782-103-R-J1-PDC patient-derived lung adenocarcinoma cell line growth inhibition [RAS]
Conditions: for viability, T/C: stronger effect = lower value; active means viability on the fitted dose curve at most 10% of control; inactive means the rest
Procedure, shortened: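 Multi-cell-type spheroids: tumor cells plus HUVEC endothelial cells and mesenchymal stem cells. RAS-pathway inhibitors were combined with targeted agents, each dosed in half-log steps down from clinical Cmax, or from 10 microM when Cmax was unknown.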

[1] = curve of first compound, second compound 0.000949 µM
[2] = curve of first compound, second compound 0.003 µM
[3] = curve of first compound, second compound 0.00949 µM
[4] = curve of first compound, second compound 0.03 µM
[5] = curve of first compound, second compound 0.0949 µM
[6] = curve of first compound, second compound 0.3 µM
[7] = second compound 0.000949 µM, first compound 0.0316 µM
[8] = second compound 0.000949 µM, first compound 0.1 µM
[9] = second compound 0.000949 µM, first compound 0.316 µM
[10] = second compound 0.000949 µM, first compound 1 µM
[11] = second compound 0.003 µM, first compound 0.0316 µM
[12] = second compound 0.003 µM, first compound 0.1 µM
[13] = second compound 0.003 µM, first compound 0.316 µM
[14] = second compound 0.003 µM, first compound 1 µM
[15] = second compound 0.00949 µM, first compound 0.0316 µM
[16] = second compound 0.00949 µM, first compound 0.1 µM
[17] = second compound 0.00949 µM, first compound 0.316 µM
[18] = second compound 0.00949 µM, first compound 1 µM
[19] = second compound 0.03 µM, first compound 0.0316 µM
[20] = second compound 0.03 µM, first compound 0.1 µM
[21] = second compound 0.03 µM, first compound 0.316 µM
[22] = second compound 0.03 µM, first compound 1 µM
[23] = second compound 0.0949 µM, first compound 0.0316 µM
[24] = second compound 0.0949 µM, first compound 0.1 µM
[25] = second compound 0.0949 µM, first compound 0.316 µM
[26] = second compound 0.0949 µM, first compound 1 µM
[27] = second compound 0.3 µM, first compound 0.0316 µM
[28] = second compound 0.3 µM, first compound 0.1 µM
[29] = second compound 0.3 µM, first compound 0.316 µM
[30] = second compound 0.3 µM, first compound 1 µM
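Further: viability read after seven days of compound exposure.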

CCN1CCN(Cc2ccc(Nc3ncc(F)c(-c4cc(F)c5nc(C)n(C(C)C)c5c4)n3)nc2)CC1 + CCn1c(-c2cc(N3CCN(C)CC3)cnc2C(C)OC)c2c3cc(ccc31)-c1csc(n1)CC(NC(=O)C1CC1C)C(=O)N1CCCC(N1)C(=O)OCC(C)(C)C2
inactive: viability, T/C (second compound 0.000949 µM, first compound 0.00316 µM) 79.5% | viability, T/C (second compound 0.000949 µM, first compound 0.01 µM) 83.1% | viability, T/C [7] 78.2% | viability, T/C [8] 73% | viability, T/C [9] 63.4% | viability, T/C [10] 34.5% | viability, T/C (second compound 0.003 µM, first compound 0.00316 µM) 64% | viability, T/C (second compound 0.003 µM, first compound 0.01 µM) 66.3% | viability, T/C [11] 57.1% | viability, T/C [12] 52.2% | viability, T/C [13] 41.8% | viability, T/C [14] 29.9% | viability, T/C (second compound 0.00949 µM, first compound 0.00316 µM) 45.9% | viability, T/C (second compound 0.00949 µM, first compound 0.01 µM) 42.9% | viability, T/C [15] 34.4% | viability, T/C [16] 31.1% | viability, T/C [17] 30.1% | viability, T/C [18] 20.8% | viability, T/C (second compound 0.03 µM, first compound 0.00316 µM) 24.5% | viability, T/C (second compound 0.03 µM, first compound 0.01 µM) 22.6% | viability, T/C [19] 21% | viability, T/C [20] 20% | viability, T/C [21] 18.2% | viability, T/C [22] 17% | viability, T/C (second compound 0.0949 µM, first compound 0.00316 µM) 17.9% | viability, T/C (second compound 0.0949 µM, first compound 0.01 µM) 16.1% | viability, T/C [23] 15.8% | viability, T/C [24] 15.2% | viability, T/C [25] 16.1% | viability, T/C [26] 14.2% | viability, T/C (second compound 0.3 µM, first compound 0.00316 µM) 17.1% | viability, T/C (second compound 0.3 µM, first compound 0.01 µM) 12.4% | viability, T/C [27] 14% | viability, T/C [28] 12.3% | viability, T/C [29] 13.9% | viability, T/C [30] 12.3%
122 nM: IC50 [2]
531 nM: IC50 [1]
< 3.16 nM: IC50 [3] | IC50 [4] | IC50 [5] | IC50 [6]

CCN1CCN(Cc2ccc(Nc3ncc(F)c(-c4cc(F)c5nc(C)n(C(C)C)c5c4)n3)nc2)CC1
inactive: viability, T/C (compound 0.00316 µM) 105% [middle of 4 runs] | viability, T/C (compound 0.01 µM) 97.8% [middle of 4 runs] | viability, T/C (compound 0.0316 µM) 99.3% [middle of 4 runs] | viability, T/C (compound 0.1 µM) 102% (2×) and 90.9% and 101% | viability, T/C (compound 0.316 µM) 95.1% [middle of 4 runs] | viability, T/C (compound 1 µM) 70% [middle of 4 runs]
> 1000 nM and 906 nM: IC50 (curve of compound)

NC1c2ccccc2OC12CCN(c1cnc3c(N4CCCc5ncccc54)n[nH]c3n1)CC2 (stereo unspecified) + CCn1c(-c2cccnc2C(C)OC)c2c3cc(ccc31)N1CCOC(CC(NC(=O)C(C(C)C)N(C)C(=O)C3(F)CCN(C(=O)C#CC(C)(C)N(C)C)CC3)C(=O)N3CCCC(N3)C(=O)OCC(C)(C)C2)C1
< 31.6 nM: IC50 [1] | IC50 [2] | IC50 [3] | IC50 [4] | IC50 [5] | IC50 [6]
inactive: viability, T/C [7] 35.5% | viability, T/C [8] 24.2% | viability, T/C [9] 17.8% | viability, T/C [10] 17% | viability, T/C (second compound 0.000949 µM, first compound 3.16 µM) 11.9% | viability, T/C (second compound 0.000949 µM, first compound 10 µM) 15.1% | viability, T/C [11] 32.3% | viability, T/C [12] 21.8% | viability, T/C [13] 20.1% | viability, T/C [14] 16.4% | viability, T/C (second compound 0.003 µM, first compound 3.16 µM) 15.2% | viability, T/C (second compound 0.003 µM, first compound 10 µM) 12.4% | viability, T/C [15] 27.7% | viability, T/C [16] 25.4% | viability, T/C [17] 21% | viability, T/C [18] 14.5% | viability, T/C (second compound 0.00949 µM, first compound 3.16 µM) 14.9% | viability, T/C (second compound 0.00949 µM, first compound 10 µM) 13.7% | viability, T/C [19] 28.8% | viability, T/C [20] 24.7% | viability, T/C [21] 21.4% | viability, T/C [22] 18.5% | viability, T/C (second compound 0.03 µM, first compound 3.16 µM) 15.8% | viability, T/C (second compound 0.03 µM, first compound 10 µM) 14.1% | viability, T/C [23] 38.2% | viability, T/C [24] 24.4% | viability, T/C [25] 24% | viability, T/C [26] 16.6% | viability, T/C (second compound 0.0949 µM, first compound 3.16 µM) 15.4% | viability, T/C (second compound 0.0949 µM, first compound 10 µM) 12.4% | viability, T/C [27] 26.1% | viability, T/C [28] 23.8% | viability, T/C [29] 18.8% | viability, T/C [30] 21.8% | viability, T/C (second compound 0.3 µM, first compound 3.16 µM) 16.9% | viability, T/C (second compound 0.3 µM, first compound 10 µM) 14.1%
